Assay results taken from PubChem BioAssay AID192 (DTP/NCI, 2004).
“And” between values parts separate entries of the source, which are not always exact repeats. Equal entries are not always repeated. Toxic doses and inconclusive results are not listed.

System: BDF1 mice, B16 melanoma ip, median survival T/C
Test: NCI In Vivo Anticancer Drug Screen. Data for tumor model B16 Melanoma (intraperitoneal) in B6D2F1 (BDF1) mice
Conditions: endpoint: median survival time, higher = longer survival
How it was run: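 The ratio T/C compares compound-treated mice with vehicle-treated controls, using survival or tumor size as the endpoint in a transplantable tumor model.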

[1] = dose: 6.25 mg/kg/injection, schedule: Q01DX009 (ip), vehicle: saline with Tween-80
[2] = dose: 12.5 mg/kg/injection, schedule: Q01DX009 (ip), vehicle: saline with Tween-80
[3] = dose: 100.0 mg/kg/injection, schedule: Q01DX009 (ip), vehicle: Klucel (hydroxypropylcellulose) (HPC)
[4] = dose: 200.0 mg/kg/injection, schedule: Q01DX009 (ip), vehicle: Klucel (hydroxypropylcellulose) (HPC)
[5] = dose: 50.0 mg/kg/injection, schedule: Q01DX009 (ip), vehicle: saline with Tween-80
[6] = dose: 12.5 mg/kg/injection, schedule: Q01DX009 (ip), vehicle: water
[7] = dose: 25.0 mg/kg/injection, schedule: Q01DX009 (ip), vehicle: water
[8] = dose: 100.0 mg/kg/injection, schedule: Q01DX009 (ip), vehicle: saline with Tween-80
[9] = dose: 200.0 mg/kg/injection, schedule: Q01DX009 (ip), vehicle: saline with Tween-80
[10] = dose: 400.0 mg/kg/injection, schedule: Q04DX003 (ip), vehicle: Klucel (hydroxypropylcellulose) (HPC)
[11] = dose: 400.0 mg/kg/injection, schedule: Q01DX009 (ip), vehicle: Klucel (hydroxypropylcellulose) (HPC)
[12] = dose: 50.0 mg/kg/injection, schedule: Q01DX009 (ip), vehicle: saline
[13] = dose: 200.0 mg/kg/injection, schedule: Q01DX009 (ip), vehicle: saline

## CC(=O)O.[Pb]
dose: 1.56 mg/kg/injection, schedule: Q01DX009 (ip), vehicle: saline with Tween-80
  T/C: 95 % of control
dose: 3.13 mg/kg/injection, schedule: Q01DX009 (ip), vehicle: saline with Tween-80
  T/C: 95 % of control
[1]
  T/C: 95 % of control
[2]
  T/C: 88 % of control

## CCCCCCCCCCCCNC(=O)Nc1cc(C)ccc1C
[3]
  T/C: 92 % of control
[4]
  T/C: 96 % of control

## Cc1cc(N)c2cc(NC(=O)CCCCCC(=O)Nc3ccc4nc(C)cc(N)c4c3)ccc2n1
[2]
  T/C: 90 % of control
dose: 25.0 mg/kg/injection, schedule: Q01DX009 (ip), vehicle: saline with Tween-80
  T/C: 98 % of control
[5]
  T/C: 110 % of control

## O=c1cc[nH]c(=O)o1
dose: 6.25 mg/kg/injection, schedule: Q01DX009 (ip), vehicle: water
  T/C: 104 % of control
[6]
  T/C: 111 % of control
[7]
  T/C: 108 % of control

## O=[N+]([O-])c1ccc(NCCO)c([N+](=O)[O-])c1
[5]
  T/C: 100 % of control
[8]
  T/C: 100 % of control
dose: 100.0 mg/kg/injection, schedule: Q04DX003 (ip), vehicle: saline with Tween-80
  T/C: 94 % of control
[9]
  T/C: 92 % of control
dose: 200.0 mg/kg/injection, schedule: Q04DX003 (ip), vehicle: saline with Tween-80
  T/C: 89 % of control

## C[Si](C)(C)c1cc(F)c(F)c(F)c1F
dose: 100.0 mg/kg/injection, schedule: Q04DX003 (ip), vehicle: Klucel (hydroxypropylcellulose) (HPC)
  T/C: 90 % of control
dose: 200.0 mg/kg/injection, schedule: Q04DX003 (ip), vehicle: Klucel (hydroxypropylcellulose) (HPC)
  T/C: 92 % of control
[10]
  T/C: 94 % of control

## NC(=O)c1ccccc1NC(=O)c1ccccc1Cl
[3]
  T/C: 100 % of control
[4]
  T/C: 97 % of control
[11]
  T/C: 102 % of control

## CCCCCCCCCCCCCCCC[N+]1(CC)CCCC1
dose: 0.1 mg/kg/injection, schedule: Q01DX009 (ip), vehicle: Klucel (hydroxypropylcellulose) (HPC)
  T/C: 102 % of control
dose: 0.2 mg/kg/injection, schedule: Q01DX009 (ip), vehicle: Klucel (hydroxypropylcellulose) (HPC)
  T/C: 95 % of control

## Cc1cccc(C)c1NC(=O)Nc1cccc2ccccc12
dose: 100.0 mg/kg/injection, schedule: Q01DX009 (ip), vehicle: gum acacia
  T/C: 117 % of control
dose: 200.0 mg/kg/injection, schedule: Q01DX009 (ip), vehicle: gum acacia
  T/C: 109 % of control
dose: 400.0 mg/kg/injection, schedule: Q01DX009 (ip), vehicle: gum acacia
  T/C: 100 % of control

## COc1ccc(S(=O)(=O)NC(=S)S)cc1
[6]
  T/C: 103 % of control
[7]
  T/C: 102 % of control
dose: 50.0 mg/kg/injection, schedule: Q01DX009 (ip), vehicle: water
  T/C: 100 % of control
dose: 100.0 mg/kg/injection, schedule: Q01DX009 (ip), vehicle: water
  T/C: 103 % of control

## [Cl][Ge]([c]1ccccc1)([c]1ccccc1)[c]1ccccc1
[3]
  T/C: 96 % of control
[4]
  T/C: 96 % of control
[11]
  T/C: 100 % of control

## NC1=NCN(C2OC(CO)C(O)C2O)C(=O)N1 (stereo not drawn)
dose: 1.56 mg/kg/injection, schedule: Q01DX009 (ip), vehicle: saline
  T/C: 92 % of control and 110 % of control
dose: 3.12 mg/kg/injection, schedule: Q01DX009 (ip), vehicle: saline
  T/C: 96 % of control
dose: 3.12 mg/kg/injection, schedule: Q01DX009 (ip), vehicle: suspension in saline
  T/C: 93 % of control
dose: 6.25 mg/kg/injection, schedule: Q01DX009 (ip), vehicle: saline
  T/C: 94 % of control and 110 % of control
dose: 6.25 mg/kg/injection, schedule: Q01DX009 (ip), vehicle: suspension in saline
  T/C: 110 % of control
dose: 12.5 mg/kg/injection, schedule: Q01DX009 (ip), vehicle: saline
  T/C: 110 % of control
dose: 12.5 mg/kg/injection, schedule: Q01DX009 (ip), vehicle: suspension in saline
  T/C: 110 % of control
dose: 25.0 mg/kg/injection, schedule: Q01DX009 (ip), vehicle: saline
  T/C: 94 % of control and 111 % of control
dose: 25.0 mg/kg/injection, schedule: Q01DX009 (ip), vehicle: suspension in saline
  T/C: 89 % of control
[12]
  T/C: 111 % of control
[13]
  T/C: 111 % of control and 119 % of control

## C1=Cc2ccccc2/C1=C/c1cccc(/C=C2\C=Cc3ccccc32)c1
[1]
  T/C: 100 % of control
[2]
  T/C: 86 % of control

## COc1cc2c(c(OC)c1O)-c1ccc(OC)c(=O)cc1[C@@H](NC(=O)C(F)(F)F)CC2
dose: 0.62 mg/kg/injection, schedule: Q01DX009 (ip), vehicle: Klucel (hydroxypropylcellulose) (HPC)
  T/C: 121 % of control
dose: 1.25 mg/kg/injection, schedule: Q01DX009 (ip), vehicle: Klucel (hydroxypropylcellulose) (HPC)
  T/C: 117 % of control and 124 % of control
dose: 2.5 mg/kg/injection, schedule: Q01DX009 (ip), vehicle: Klucel (hydroxypropylcellulose) (HPC)
  T/C: 116 % of control
dose: 5.0 mg/kg/injection, schedule: Q01DX009 (ip), vehicle: Klucel (hydroxypropylcellulose) (HPC)
  T/C: 118 % of control

## O=C1C(N2CCCC2)=C(N2CC2)C(=O)C(N2CCCC2)=C1N1CC1
dose: 0.25 mg/kg/injection, schedule: Q01DX009 (ip), vehicle: saline
  T/C: 100 % of control
dose: 0.5 mg/kg/injection, schedule: Q01DX009 (ip), vehicle: saline
  T/C: 114 % of control
dose: 1.0 mg/kg/injection, schedule: Q01DX009 (ip), vehicle: saline
  T/C: 111 % of control
dose: 2.0 mg/kg/injection, schedule: Q01DX009 (ip), vehicle: saline
  T/C: 118 % of control

## C/C(=C\C(=O)Nc1ncn[nH]1)Nc1ncn[nH]1
dose: 50.0 mg/kg/injection, schedule: Q01DX009 (ip), vehicle: Klucel (hydroxypropylcellulose) (HPC)
  T/C: 106 % of control
[3]
  T/C: 102 % of control
[4]
  T/C: 90 % of control
[11]
  T/C: 101 % of control

## Cc1ncc(CO)c(CO)c1O
[12]
  T/C: 100 % of control
dose: 50.0 mg/kg/injection, schedule: Q08HX018 (ip), vehicle: saline
  T/C: 101 % of control
dose: 100.0 mg/kg/injection, schedule: Q01DX009 (ip), vehicle: saline
  T/C: 100 % of control
dose: 100.0 mg/kg/injection, schedule: Q08HX018 (ip), vehicle: saline
  T/C: 99 % of control
[13]
  T/C: 100 % of control
dose: 200.0 mg/kg/injection, schedule: Q08HX018 (ip), vehicle: saline
  T/C: 95 % of control
dose: 400.0 mg/kg/injection, schedule: Q01DX009 (ip), vehicle: saline
  T/C: 91 % of control
dose: 400.0 mg/kg/injection, schedule: Q08HX018 (ip), vehicle: saline
  T/C: 92 % of control
dose: 800.0 mg/kg/injection, schedule: Q01DX009 (ip), vehicle: saline
  T/C: 87 % of control
dose: 800.0 mg/kg/injection, schedule: Q08HX018 (ip), vehicle: saline
  T/C: 89 % of control

## COc1cc2c3c(c4ccc(OC)c(OC)c4c2cc1OC)CN1CCC[C@@H]1C3
dose: 2.0 mg/kg/injection, schedule: Q01DX009 (ip), vehicle: saline with Tween-80
  T/C: 97 % of control
dose: 4.0 mg/kg/injection, schedule: Q01DX009 (ip), vehicle: saline with Tween-80
  T/C: 89 % of control
dose: 8.0 mg/kg/injection, schedule: Q01DX009 (ip), vehicle: saline with Tween-80
  T/C: 102 % of control and 118 % of control
dose: 16.0 mg/kg/injection, schedule: Q01DX009 (ip), vehicle: saline with Tween-80
  T/C: 106 % of control

## O=C(NC(Cc1ccccc1)C(=O)O)c1ccccc1 (stereo not drawn)
[5]
  T/C: 90 % of control
[8]
  T/C: 96 % of control

## CC(C)CC(C)(c1ccc(O)cc1)c1ccc(O)cc1
[8]
  T/C: 98 % of control
[9]
  T/C: 98 % of control

## [N-]=[N+]=C1N=CN=C1c1ncn[nH]1
dose: 3.12 mg/kg/injection, schedule: Q01DX009 (ip), vehicle: carboxymethylcellulose (CMC)
  T/C: 107 % of control
dose: 6.25 mg/kg/injection, schedule: Q01DX009 (ip), vehicle: carboxymethylcellulose (CMC)
  T/C: 119 % of control

## Cc1noc(/N=C/c2cccc(Cl)c2)c1C
dose: 175.0 mg/kg/injection, schedule: Q04DX003 (ip), vehicle: Klucel (hydroxypropylcellulose) (HPC)
  T/C: 107 % of control
dose: 265.0 mg/kg/injection, schedule: Q04DX003 (ip), vehicle: Klucel (hydroxypropylcellulose) (HPC)
  T/C: 116 % of control
[10]
  T/C: 109 % of control
dose: 600.0 mg/kg/injection, schedule: Q04DX003 (ip), vehicle: Klucel (hydroxypropylcellulose) (HPC)
  T/C: 107 % of control

## CNC(=O)OCc1c(COC(=O)NC)c(-c2ccccc2)n(C)c1-c1ccccc1
dose: 3.12 mg/kg/injection, schedule: Q01DX009 (ip), vehicle: distilled water + Tween-80
  T/C: 161 % of control
dose: 6.25 mg/kg/injection, schedule: Q01DX009 (ip), vehicle: distilled water + Tween-80
  T/C: 159 % of control
dose: 12.5 mg/kg/injection, schedule: Q01DX009 (ip), vehicle: distilled water + Tween-80
  T/C: 166 % of control
dose: 25.0 mg/kg/injection, schedule: Q01DX009 (ip), vehicle: distilled water + Tween-80
  T/C: 206 % of control
